Key:
Adipoq−/− mice = assay: Mouse hair cycle modulation, histology and anagen induction score, Adipoq−/− mice; type: in vivo; settings: Unpaired t-test
Excerpt: We also evaluated P5 effect in Adipoq ^−/− mouse (Ma et al, [2002]). […] Skin pigmentation was prominent in P5‐treated Adipoq ^−/− mice at day 14 (Fig 4E). […] At day 35, unlike vehicle‐treated Adipoq ^−/− mice showing little pigmentation, P5‐treated Adipoq ^−/− mice manifested hairs with pigmentation (Fig 4E). […] The DP cells in P5‐treated Adipoq ^−/− mice expressed versican (Fig 4G).
Paraffin‐embedded mouse cutaneous back tissue was sectioned (4 μm thickness) and stained with hematoxylin and eosin. […] IF intensity was observed and recorded with a Nikon Eclipse Ni‐E fluorescence microscope (Nikon).
For the hair cycle modulation experiment, Adipoq ^−/− (stock #008195; JAX) (Ma et al, [2002]), Adipor1 ^−/− (Yamauchi et al, [2007]; Okada‐Iwabu et al, [2013]), or C57BL/6 (KOATECH) female mice was used (Müller‐Röver et al, [2001]). […] The mouse hair growth score (a value from 0 to 100 based on the skin pigmentation and hair shaft density) was monitored and documented at designated days with the experimenters being blind to the conditions, following a previous study (Chai et al, [2019]). […] On day 35, we obtained dorsal cutaneous tissue for histological analysis: anagen induction scores (calculated using an assigned arbitrary score; telogen = 1, anagen I–VI = 2–7) (Müller‐Röver et al, [2001]).

[1] = Transdermal delivery in ex vivo human skin tissue culture, qualitative MS of dermal lysate; type: in vitro ADME; settings: 50 mM in DMSO placed daily, 5 days, 37°C, dermal lysate in 50% methanol
Excerpt: (§1) Next, we checked whether topically applied P5 can be delivered into human skin using ex vivo skin tissue culture model (Fig EV4A) (Haslam et al, [2018]). After topical application of vehicle or P5 on the ex vivo skin tissue, the dermal lysate of each tissue was examined by the qualitative mass spectrometry (MS). […] To trace the origin of P5, we used isotope‐marked P5 (P5*), in which carbon (^12C) atoms of Gly were substituted with isotope carbon atoms (^13C) increasing the molecular weight by 2 compared to that of original P5 (Fig EV4B). […] Collectively, P5 can be transdermally delivered into human skin.
Topical application of peptides on ex vivo skin study was performed as described previously (Haslam et al, [2018]). Briefly, full thickness skin tissue from cadavers within 48 h after death was acquired and biopsied using a 6 mm punch. The skin tissue was acclimatized in supplemented Williams’ E media with L‐glutamine (2 mM), penicillin‐streptomycin solution (1×), hydrocortisone (10 ng/ml), and insulin (100 ng/ml) overnight at 37°C in a 5% CO2 atmosphere. After acclimatization, the skin tissue was carefully pulled through a cell strainer with the epidermis exposed to the air, leaving the dermis submerged in the culture media. […] The lysate was qualitatively analyzed by a MS system (API 4000 Q‐trap; AB SCIEX).

[2] = system: p-AMPK in human buttock skin; assay: Topical application of P5 on human skin in vivo, p-AMPK (IF, Western blot); settings: topical 0.075, 0.75, 1.5, or 7.5 mM on buttock, occluded, 24 h; IF and Western blot
Excerpt: as §1
(§2) Human ORS and DP cells or skin tissue were lysed (RIPA lysis buffer; #20‐188; Merck Millipore). The obtained protein was then separated by 8% SDS–PAGE and transferred to a polyvinylidene fluoride membrane (Amersham). The protein transferred membranes were incubated overnight with the specific antibodies. […] Antibody‐antigen complexes detected by enhanced chemiluminescent substrate (Thermo Fisher) were captured and quantified by Amersham imager 680 systems (GE Healthcare).
Paraffin‐embedded mouse cutaneous back tissue was sectioned (4 μm thickness) and stained with hematoxylin and eosin. […] IF intensity was observed and recorded with a Nikon Eclipse Ni‐E fluorescence microscope (Nikon). […]

[3] = system: AMPK phosphorylation in DP cells; assay: Western blot p-AMPK, DP cells; type: cell-based, human; settings: P5 0 - 50 μM, APN 2.5 μg/ml
Excerpt: Following the confirmation of the molecular interaction between AdipoR1 and P5, we evaluated the activation of the intracellular signaling pathway by P5. We investigated whether APN treatment on ORS and DP cells could activate AMPK or ERK signaling pathways, which are previously known to be downstream effectors of AdipoR1 (Mao et al, [2006]; Deepa & Dong, [2009]; Shibata et al, [2012]). […] Next, for determination of whether both P5 and APN mediates the phosphorylation of AMPK through AdipoR1 in ORS and DP cells, the cells were transfected with AdipoR1 siRNA (Appendix Fig S1). […] Collectively, P5 activates AMPK signaling pathway through AdipoR1 in ORS and DP cells in vitro.
as §2

Q: Which “Anagen induction score vs vehicle” value (Adipoq−/− mice) does the source give for “GLYYF [P5, GST-fused (GST-P5) in pulldown assays]” here?
A: significantly higher

Q: What about the “Detection in skin dermis after topical application (transdermal delivery)” value [1] of the same substance?
A: qualitatively detected

Q: And the “Phosphorylation of AMPK in human skin in vivo” value [2]?
A: induced the phosphorylation of AMPK in dermis as well as epidermis

Q: And the “Phosphorylation of AMPK, DP cells” value [3]?
A: concentration‐dependent phosphorylation of AMPK

From article PMC8495455, “Discovery of a transdermally deliverable pentapeptide for activating AdipoR1 to promote hair growth” (EMBO Molecular Medicine, 2021)
